In series [1] the test system is E. coli GW2100/pTJgfp (umuC'-gfp fusion). The note with it: for Mean fluorescence emission: 24 hours incubation.
Series [2] relates to E. coli GW2100/pTJgfp (umuC'::gfp). As to conditions: nutrient broth, FIG. 3.
In series [3] the test system is arg-3 marker in E. coli strain GW2100/pTJgfp. As to conditions: for Mean revertant colony numbers: 37 parallel cultures, 4 day plate incubation.

Read-outs that look alike come from different tables or passages of the source.

Consider `COS(C)(=O)=O` [MMS, methylmethane sulphonate], for which the “K.S statistic, fluorescence emission, mutagen versus the control” value in series [1] (MMS 13 μg/ml) amounted to 3.09; in series [1] (MMS 325 μg/ml) it was 6.48. For the same compound, the Mean fluorescence emission in series [1] (MMS 13 μg/ml, 84 parallel cultures) is given as 13.22; in series [1] (MMS 325 μg/ml, 84 parallel cultures), 36.5. In addition, the “mutagenic activity by shift in mean fluorescent output per culture” value in series [1] (MMS 325 μg/ml, 84 parallel cultures, FIG. 10) is “pronounced”. Also, the “fluorescence level compared with the 0 dose control” value is on record as “no significant difference” in series [2] (MMS 13 μg/ml); “dose-dependent manner” in series [2] (MMS 325 and 650 μg/ml). Moreover, the “fluorescence level (cellular toxicity)” value in series [2] (MMS 1300 μg/ml) was “lower level of fluorescence”. The “K.S statistic, revertant colony numbers, mutagen versus the control” value in series [3] (MMS 13 μg/ml) was found to be 2.711; in series [3] (MMS 325 μg/ml), 3.889. In addition, the figures for the “Mean revertant colony numbers” value in series [3] (MMS 13 μg/ml) and in series [3] (MMS 325 μg/ml) were 8.84 and 17.95, respectively. In addition, in series [3] (MMS 13 μg/ml, FIG. 8), the “mutagenicity through change in culture to culture variation in mutant numbers (mean unchanged)” value is “mutagenicity is still detectable”. In series [3] (MMS 325 μg/ml, FIG. 8), the “response in mean number of revertant colonies per culture sample” value was “clearly positive result”.

For the origin of these results see patent publication US6667153B1 (priority 2000, dated 2003).
